In patent US20100203531A1, “PREDICTING RESPONSIVENESS TO TEMOZOLOMIDE” (priority 2007, published 2010):

Legend:
Format in all cases: in vivo, human
GBM6 xenograft = experiment: Orthotopic intracranial xenograft survival, GBM6
Method: (§1) In vivo sensitivity of GBM lines to TMZ: To address whether MGMT methylation or polypeptide expression status are predictive of TMZ responsiveness, the effects of TMZ therapy on survival were evaluated in the panel of xenografts using an orthotopic therapy model. […] This TMZ dosing regimen provides the equivalent dose-exposure to TMZ as the standard adjuvant TMZ dosing regimen for GBM patients of 200 mg/m^2×5 days. All mice were followed until reaching a moribund state, and the relative prolongation of survival following TMZ treatment was calculated for each line relative to placebo treatment (Table 1). […] Further analysis of the relationship between TMZ responsiveness and MGMT methylation status in 17 xenograft lines was conducted by comparing the distribution of median survival prolongation results for methylation-positive and methylation-negative groups of xenografts. From this analysis, MGMT methylation was modestly associated with increased TMZ sensitivity (FIG. 2, p=0.039, two-sample rank sum test). In a similar analysis of MGMT polypeptide expression levels, high levels of MGMT polypeptide expression were invariably associated with relative TMZ resistance, and the absence of MGMT polypeptide expression was associated with significant TMZ sensitivity (r=−0.73, p=0.005). […] While p53, PTEN and EGFR function have been linked to TMZ sensitivity in some models, no correlation between genetic alterations of these genes and TMZ responsiveness was observed.
(§2) Orthotopic model: Therapy evaluations were conducted using an orthotopic tumor model as described elsewhere (Sarkaria et al., Clin Cancer Res, 12:2264-2271 (2006), Giannini et al., Neuro-Oncology, 7:164-176, (2005)). Athymic nude mice (NCI, Frederick, Md.) with established intracranial tumors were randomized into groups of 8 to 10 mice each and treatment was initiated 2 weeks before mice were expected to become moribund. TMZ was purchased from the Mayo Clinic Pharmacy, suspended in Ora-plus (Paddock Laboratories, Minneapolis. […] Mice were observed daily and euthanized when moribund.
(§3) Statistical analysis: Survival distributions were estimated using the Kaplan-Meier method. The log rank test was used to compare survival across treatment groups. All GBM experiments were pooled and Classification and Regression Tree analysis (CART) was used to identify which CpG sites in the MS-PCR assay (CpG sites 78-82, 86-89) were predictive of overall survival in TMZ treated mice. The two-sample rank sum test was used to compare relative differences in survival relative to MGMT MS-PCR status or CpG89 methylation status. Spearman's correlation coefficient was used to assess the association of relative median survival and protein expression levels of MGMT relative to 13-actin.

GBM8 xenograft = experiment: Orthotopic intracranial xenograft survival, GBM8
Method: (§4) In vivo sensitivity of GBM lines to TMZ: To address whether MGMT methylation or polypeptide expression status are predictive of TMZ responsiveness, the effects of TMZ therapy on survival were evaluated in the panel of xenografts using an orthotopic therapy model. Mice with established intracranial xenografts were treated with 66 mg/kg TMZ or placebo daily for 5 days by oral gavage. This TMZ dosing regimen provides the equivalent dose-exposure to TMZ as the standard adjuvant TMZ dosing regimen for GBM patients of 200 mg/m^2×5 days. All mice were followed until reaching a moribund state, and the relative prolongation of survival following TMZ treatment was calculated for each line relative to placebo treatment (Table 1). […] Further analysis of the relationship between TMZ responsiveness and MGMT methylation status in 17 xenograft lines was conducted by comparing the distribution of median survival prolongation results for methylation-positive and methylation-negative groups of xenografts. From this analysis, MGMT methylation was modestly associated with increased TMZ sensitivity (FIG. 2, p=0.039, two-sample rank sum test). In a similar analysis of MGMT polypeptide expression levels, high levels of MGMT polypeptide expression were invariably associated with relative TMZ resistance, and the absence of MGMT polypeptide expression was associated with significant TMZ sensitivity (r=−0.73, p=0.005). […] While p53, PTEN and EGFR function have been linked to TMZ sensitivity in some models, no correlation between genetic alterations of these genes and TMZ responsiveness was observed.
(§5) Orthotopic model: Therapy evaluations were conducted using an orthotopic tumor model as described elsewhere (Sarkaria et al., Clin Cancer Res, 12:2264-2271 (2006), Giannini et al., Neuro-Oncology, 7:164-176, (2005)). Athymic nude mice (NCI, Frederick, Md.) with established intracranial tumors were randomized into groups of 8 to 10 mice each and treatment was initiated 2 weeks before mice were expected to become moribund. TMZ was purchased from the Mayo Clinic Pharmacy, suspended in Ora-plus (Paddock Laboratories, Minneapolis. MN), and administered by oral gavage at 66 mg/kg for 5 days. Mice were observed daily and euthanized when moribund.
as §3, with “Spearman's correlation coefficient was used to assess the association of relative median survival and protein expression levels of MGMT relative to 13-actin.” left out

GBM14 xenograft = experiment: Orthotopic intracranial xenograft survival, GBM14
Method: as §4, §2, §3

GBM28 / GS28 xenograft = experiment: Orthotopic intracranial xenograft survival, GBM28 (GS28)
Method: as §4, §5
as §3, with “Spearman's correlation coefficient was used to assess the association of relative median survival and protein expression levels of MGMT relative to 13-actin.” left out

GBM34 xenograft = experiment: Orthotopic intracranial xenograft survival, GBM34
Method: as §4, §5
as §3, with “Spearman's correlation coefficient was used to assess the association of relative median survival and protein expression levels of MGMT relative to 13-actin.” left out

GBM44 xenograft = experiment: Orthotopic intracranial xenograft survival, GBM44
Method: as §1, §2, §3

GBM59 xenograft = experiment: Orthotopic intracranial xenograft survival, GBM59
Method: In vivo sensitivity of GBM lines to TMZ: To address whether MGMT methylation or polypeptide expression status are predictive of TMZ responsiveness, the effects of TMZ therapy on survival were evaluated in the panel of xenografts using an orthotopic therapy model. Mice with established intracranial xenografts were treated with 66 mg/kg TMZ or placebo daily for 5 days by oral gavage. This TMZ dosing regimen provides the equivalent dose-exposure to TMZ as the standard adjuvant TMZ dosing regimen for GBM patients of 200 mg/m^2×5 days. All mice were followed until reaching a moribund state, and the relative prolongation of survival following TMZ treatment was calculated for each line relative to placebo treatment (Table 1). […] Further analysis of the relationship between TMZ responsiveness and MGMT methylation status in 17 xenograft lines was conducted by comparing the distribution of median survival prolongation results for methylation-positive and methylation-negative groups of xenografts. From this analysis, MGMT methylation was modestly associated with increased TMZ sensitivity (FIG. 2, p=0.039, two-sample rank sum test). […]

## Cn1nnc2c(C(N)=O)ncn2c1=O [TMZ, Temozolomide]
GBM6 xenograft; GBM6, median survival relative to placebo, 66 mg/kg oral for 5 days (Table 3)
  Survival Prolongation: 37%
GBM6 xenograft; GBM6, prolongation of median survival relative to placebo, TMZ 66 mg/kg oral x5 days
  Survival benefit: 37%
GBM6 xenograft; GBM6 generation 20, TMZ 120 mg/kg for 5 days, intracranial
  Survival benefit: 67%
GBM6 xenograft; GBM6 generation 24, TMZ 66 mg/kg for 5 days, intracranial
  Survival benefit: 21%
GBM6 xenograft; GBM6 intracranial xenograft, nude mice, TMZ 66 mg/kg oral daily x5 days
  TMZ median survival: 56
GBM6 xenograft; GBM6 intracranial, athymic nude mice, 66 mg/kg oral gavage for 5 days (Table 3)
  Temozolomide median survival: 56
GBM8 xenograft; GBM8, median survival relative to placebo, 66 mg/kg oral for 5 days (Table 3)
  Survival Prolongation: 110%
GBM8 xenograft; GBM8, prolongation of median survival relative to placebo, TMZ 66 mg/kg oral x5 days
  Survival benefit: 110%
GBM8 xenograft; GBM8 intracranial xenograft, nude mice, TMZ 66 mg/kg oral daily x5 days
  TMZ median survival: 124
GBM8 xenograft; GBM8 intracranial, athymic nude mice, 66 mg/kg oral gavage for 5 days (Table 3)
  Temozolomide median survival: 124
GBM14 xenograft; GBM14, median survival relative to placebo, 66 mg/kg oral for 5 days (Table 3)
  Survival Prolongation: 558%
GBM14 xenograft; GBM14, prolongation of median survival relative to placebo, TMZ 66 mg/kg oral x5 days
  Survival benefit: 558%
GBM14 xenograft; GBM14 generation 21, TMZ 120 mg/kg for 5 days, intracranial
  Survival benefit: 148%
GBM14 xenograft; GBM14 generation 33, TMZ 66 mg/kg for 5 days, intracranial
  Survival benefit: 421%
GBM14 xenograft; GBM14 intracranial xenograft, nude mice, TMZ 66 mg/kg oral daily x5 days
  TMZ median survival: 154
GBM14 xenograft; GBM14 intracranial, athymic nude mice, 66 mg/kg oral gavage for 5 days (Table 3)
  Temozolomide median survival: 217
GBM28 / GS28 xenograft; GBM28, prolongation of median survival relative to placebo, TMZ 66 mg/kg oral x5 days
  Survival benefit: 70%
GBM28 / GS28 xenograft; GBM28 intracranial xenograft, nude mice, TMZ 66 mg/kg oral daily x5 days
  TMZ median survival: 56
GBM28 / GS28 xenograft; GS28, median survival relative to placebo, 66 mg/kg oral for 5 days (Table 3)
  Survival Prolongation: 70%
GBM28 / GS28 xenograft; GS28 intracranial, athymic nude mice, 66 mg/kg oral gavage for 5 days (Table 3)
  Temozolomide median survival: 56
GBM34 xenograft; GBM34, median survival relative to placebo, 66 mg/kg oral for 5 days (Table 3)
  Survival Prolongation: 294%
GBM34 xenograft; GBM34, prolongation of median survival relative to placebo, TMZ 66 mg/kg oral x5 days
  Survival benefit: 294%
GBM34 xenograft; GBM34 intracranial xenograft, nude mice, TMZ 66 mg/kg oral daily x5 days
  TMZ median survival: 351
GBM34 xenograft; GBM34 intracranial, athymic nude mice, 66 mg/kg oral gavage for 5 days (Table 3)
  Temozolomide median survival: 351
GBM44 xenograft; GBM44, median survival relative to placebo, 66 mg/kg oral for 5 days (Table 3)
  Survival Prolongation: 60%
GBM44 xenograft; GBM44, prolongation of median survival relative to placebo, TMZ 66 mg/kg oral x5 days
  Survival benefit: 60%
GBM44 xenograft; GBM44 generation 5, TMZ 120 mg/kg for 5 days, intracranial
  Survival benefit: −7%
GBM44 xenograft; GBM44 generation 12, TMZ 66 mg/kg for 5 days, intracranial
  Survival benefit: 60%
GBM44 xenograft; GBM44 intracranial xenograft, nude mice, TMZ 66 mg/kg oral daily x5 days
  TMZ median survival: 56
GBM44 xenograft; GBM44 intracranial, athymic nude mice, 66 mg/kg oral gavage for 5 days (Table 3)
  Temozolomide median survival: 56
GBM59 xenograft; GBM59, prolongation of median survival relative to placebo, TMZ 66 mg/kg oral x5 days
  Survival benefit: 96%
GBM59 xenograft; GBM59 intracranial xenograft, nude mice, TMZ 66 mg/kg oral daily x5 days
  TMZ median survival: 90
